Assay results published in the NIST ThermoML archive (doi:10.1016/j.fluid.2007.06.001).

Legend:
[1] = excess molar enthalpy (molar enthalpy of mixing); xn = mol fraction of the nth substance listed; conditions: Liquid
[2] = 353.15 K; Liquid

CCCC[n+]1ccn(C)c1.O=S(=O)([N-]S(=O)(=O)C(F)(F)F)C(F)(F)F + c1ccccc1
[1], 101.3 kPa
Conditions	excess molar enthalpy [kcal/mol]
363.15 K, x2 = 0.0498	-0.0235
363.15 K, x2 = 0.0997	-0.0451
363.15 K, x2 = 0.1495	-0.0678
363.15 K, x2 = 0.1994	-0.0875
363.15 K, x2 = 0.2992	-0.127
363.15 K, x2 = 0.4491	-0.176
363.15 K, x2 = 0.5991	-0.206
363.15 K, x2 = 0.6992	-0.198
363.15 K, x2 = 0.7994	-0.147
363.15 K, x2 = 0.8495	-0.112
363.15 K, x2 = 0.8997	-0.0716
363.15 K, x2 = 0.9498	-0.0353
413.15 K, x2 = 0.1462	-0.0688
413.15 K, x2 = 0.2087	-0.0954
413.15 K, x2 = 0.2654	-0.12
413.15 K, x2 = 0.3172	-0.142
413.15 K, x2 = 0.3647	-0.166
413.15 K, x2 = 0.4485	-0.196
413.15 K, x2 = 0.5202	-0.212
413.15 K, x2 = 0.5823	-0.22
413.15 K, x2 = 0.6844	-0.217
413.15 K, x2 = 0.7648	-0.186
413.15 K, x2 = 0.8299	-0.142
413.15 K, x2 = 0.907	-0.0792
413.15 K, x2 = 0.967	-0.0313

CCCCCCCC [octane]
Conditions	vapor or sublimation pressure [kPa]
[2]	23.16

CCCCCC[n+]1ccn(C)c1.O=S(=O)([N-]S(=O)(=O)C(F)(F)F)C(F)(F)F + c1ccccc1
[1], 363.15 K, 101 kPa
Conditions	excess molar enthalpy [kcal/mol]
x2 = 0.0854	-0.0378
x2 = 0.1608	-0.0698
x2 = 0.2279	-0.0993
x2 = 0.288	-0.12
x2 = 0.3421	-0.142
x2 = 0.3912	-0.163
x2 = 0.4765	-0.191
x2 = 0.5482	-0.21
x2 = 0.6094	-0.214
x2 = 0.7082	-0.206
x2 = 0.7845	-0.183
x2 = 0.8452	-0.138
x2 = 0.9161	-0.0683
x2 = 0.9704	-0.0212

CCCCCCCCC [nonane]
Conditions	vapor or sublimation pressure [kPa]
[2]	9.65

CCn1cc[n+](C)c1.O=S(=O)([N-]S(=O)(=O)C(F)(F)F)C(F)(F)F + CCO
[1], 323.15 K, 101.3 kPa
Conditions	excess molar enthalpy [kcal/mol]
x2 = 0.0529	0.0909
x2 = 0.1017	0.163
x2 = 0.1885	0.297
x2 = 0.3291	0.463
x2 = 0.5246	0.586
x2 = 0.7259	0.525
x2 = 0.8436	0.384
x2 = 0.9687	0.105

CCCCCC[n+]1ccn(C)c1.O=S(=O)([N-]S(=O)(=O)C(F)(F)F)C(F)(F)F + CC(C)=O
[1], 353.15 K, 101 kPa
Conditions	excess molar enthalpy [kcal/mol]
x2 = 0.02	-0.0107
x2 = 0.0499	-0.0253
x2 = 0.0999	-0.0512
x2 = 0.1498	-0.0795
x2 = 0.1998	-0.106
x2 = 0.2997	-0.158
x2 = 0.3996	-0.202
x2 = 0.4996	-0.239
x2 = 0.5996	-0.26
x2 = 0.6997	-0.268
x2 = 0.7998	-0.25
x2 = 0.8999	-0.182
x2 = 0.9499	-0.117

C=CCCCCCC [oct-1-ene] + CCCCCC[n+]1ccn(C)c1.O=S(=O)([N-]S(=O)(=O)C(F)(F)F)C(F)(F)F
[1], 413.15 K, 101 kPa
Conditions	excess molar enthalpy [kcal/mol]
x1 = 0.0504	0.0404
x1 = 0.0982	0.0729
x1 = 0.1437	0.102
x1 = 0.1869	0.131
x1 = 0.2281	0.142
x1 = 0.2675	0.141
x1 = 0.3409	0.13
x1 = 0.4082	0.116
x1 = 0.47	0.103
x1 = 0.5797	0.0815
x1 = 0.6742	0.0617
x1 = 0.7563	0.0472
x1 = 0.8613	0.0272

CCCC[n+]1ccn(C)c1.O=S(=O)([N-]S(=O)(=O)C(F)(F)F)C(F)(F)F + CCC(C)=O
[1], 353.15 K, 101 kPa
Conditions	excess molar enthalpy [kcal/mol]
x2 = 0.0508	-0.0292
x2 = 0.1015	-0.0592
x2 = 0.1521	-0.0906
x2 = 0.2026	-0.118
x2 = 0.3035	-0.172
x2 = 0.4541	-0.239
x2 = 0.6039	-0.282
x2 = 0.7034	-0.289
x2 = 0.8026	-0.259
x2 = 0.8521	-0.229
x2 = 0.9015	-0.181
x2 = 0.9508	-0.112

CCn1cc[n+](C)c1.O=S(=O)([N-]S(=O)(=O)C(F)(F)F)C(F)(F)F + CCCCCC
[1], 353.15 K, 101.3 kPa
Conditions	excess molar enthalpy [kcal/mol]
x2 = 0.0239	0.0297
x2 = 0.0472	0.0535
x2 = 0.07	0.066
x2 = 0.0923	0.0787
x2 = 0.1354	0.0756
x2 = 0.2162	0.0688
x2 = 0.3916	0.0521
x2 = 0.6588	0.0288
x2 = 0.8528	0.0125

CCCC[n+]1ccn(C)c1.O=S(=O)([N-]S(=O)(=O)C(F)(F)F)C(F)(F)F + CC(C)=O
[1], 353.15 K, 101 kPa
Conditions	excess molar enthalpy [kcal/mol]
x2 = 0.05	-0.031
x2 = 0.0999	-0.0608
x2 = 0.1499	-0.092
x2 = 0.1999	-0.122
x2 = 0.2998	-0.175
x2 = 0.4498	-0.248
x2 = 0.5998	-0.291
x2 = 0.6998	-0.296
x2 = 0.7999	-0.265
x2 = 0.8499	-0.235
x2 = 0.8999	-0.186
x2 = 0.95	-0.118
